28 molecules from ChEMBL document CHEMBL5543103, “Toward a Template for Synthetic Actin-Targeting Macrolide Analogues That Inhibit Cancer Cell Invasiveness” (J Med Chem, 2024) can be followed below.

The species entered for one series is Oryctolagus cuniculus. As to the kind of experiment: (§1) Inhibition of rabbit skeletal muscle G-actin polymerization at 0.5 uM preincubated for 50 sec followed by ATP addition and measured for 600 sec by fluorescence spectrophotometer method relative to control. Conditions: time 650.0 sec.
The species named for the next series is Homo sapiens. Put plainly: Induction of F-actin depolymerization (unknown origin) at 10 uM measured for 900 sec in presence of ATP by fluorescence spectrophotometer method relative to MycB.
Series [1] can be described thus: Partition coefficient, logP of compound. Format: physicochemical. Conditions: octanol/water.
Series [2] concerns Cell membrane. As to the kind of experiment: Disruption of membrane projections in human SK-OV-3 cells at 1 uM. It is filed as cell membranes.
In series [3] the test system is Cell membrane. As to the kind of experiment: Disruption of membrane in human SK-OV-3 cells assessed as F-actin aggregates formation at 1 uM. Format: cell membranes.
Series [4] concerns A549. Put plainly: Inhibition of cell invasion in human A549 cells assessed as decrease in wound density at 10 uM after 50 hrs by IncuCyte live-cell imaging analysis. It is filed as functional, cell-based.
A short description of series [5]: as §1. More on the design: species or system Oryctolagus cuniculus.
Series [6] relates to Cell membrane. Put plainly: Disruption of membrane projections in human SK-OV-3 cells at 0.1 uM. Format: cell membranes.
The test system of series [7] is Cell membrane. As to the kind of experiment: Disruption of membrane in human SKOV3 cells assessed as F-actin aggregates formation at 0.1 uM. Format: cell membranes. Conditions: SK-OV-3.
Series [8] relates to A549. Put plainly: Inhibition of cell invasion in human A549 cells assessed as decrease in wound density at 0.1 uM after 50 hrs by IncuCyte live-cell imaging analysis. Format: functional, cell-based.
A further series deals with B16. As to the kind of experiment: Cytotoxicity against mouse B16 cells. Format: functional, cell-based.
The test system of another series is KB. As to the kind of experiment: Cytotoxicity against human KB cells. Format: functional, cell-based.
For a further series, the system named is L1210. Put plainly: Cytotoxicity against mouse L1210 cells. It is filed as functional, cell-based.

Active and inactive are the calls of the source. The calls are words filed in the database; no cut-off is given here.

In the series listed under Oryctolagus cuniculus, `CCC(=O)O[C@@H](C[C@H](OC)[C@@H](C)CC[C@@H](OC(=O)C(C)C)[C@H](C)C(OC)[C@H](C)/C=C/N(C=O)C1CC1)C(C)C` (single isomer, unassigned) yielded an inhibition of 77%. Further, the Activity in the series listed under Homo sapiens was found to be 56%.

Turning to `CCC(=O)O[C@@H](C[C@H](OC)[C@@H](C)CC[C@@H](OC(=O)[C@H]1CCCO1)[C@H](C)[C@H](OC)[C@H](C)/C=C/N(C=O)CC)C(C)C`, the inhibition in the series listed under Oryctolagus cuniculus was 63%. For the same molecule, the Activity in the series listed under Homo sapiens was found to be 77%. For the same molecule, the log partition coefficient (logP) in series [1] is 5.67.

Consider `CCC(=O)O[C@@H](C[C@H](OC)[C@@H](C)CC[C@@H](OC(=O)C(C)C)[C@H](C)[C@H](OC)[C@H](C)/C=C/N1CCCCC1=O)C(C)C`, for which, in the series listed under Oryctolagus cuniculus, the inhibition is 18%. Also, the Activity in the series listed under Homo sapiens came out at 14%.

In the series listed under Oryctolagus cuniculus, `CCC(=O)O[C@@H](C[C@H](OC)[C@@H](C)CC[C@@H](OC(=O)C1CCCC1)[C@H](C)[C@H](OC)[C@H](C)/C=C/N(C)C=O)C(C)C` displayed an inhibition of 53%. Moreover, the Activity in the series filed under Homo sapiens worked out at 39%.

As for `CCN(C=O)/C=C/[C@@H](C)[C@@H](OC)[C@@H](C)[C@@H](CC[C@H](C)[C@H](C[C@H](OC(=O)CCCN)C(C)C)OC)OC(=O)[C@H]1CCCO1`, the outcome in the series on Cell membrane [2] and in the series on Cell membrane [3] was Active. Further, the inhibition result in the series with A549 [4] is “Active”. Besides, the logP in series [1] was determined as 4.55.

Molecule `CCC(=O)O[C@@H](C[C@H](OC)[C@@H](C)CC[C@@H](OC(=O)c1ccco1)[C@H](C)[C@H](OC)[C@H](C)/C=C/N(C)C=O)C(C)C` had an inhibition in the series listed under Oryctolagus cuniculus of 43%. The Activity in the series listed under Homo sapiens is 41%.

For `CCC(=O)O[C@@H](C[C@H](OC)[C@@H](C)CC[C@@H](OC(=O)C(C)C)[C@H](C)[C@H](OC)[C@H](C)/C=C/N1CCCC1=O)C(C)C`, the inhibition in the series filed under Oryctolagus cuniculus is 29%. Also, the Activity in the series filed under Homo sapiens was 26%.

`CCC(=O)O[C@H](CC)C[C@H](OC)[C@@H](C)CC[C@H](OC(=O)CC)[C@H](C)[C@H](OC)[C@H](C)/C=C/N(C)C=O` showed an IC50 in [5] of 5500 nM. In addition, the Activity in the series listed under Homo sapiens was determined as 17%.

In the case of `CCC(=O)O[C@H](CC)C[C@H](OC)[C@@H](C)CC[C@@H](OC(=O)CC)[C@H](C)[C@H](OC)[C@H](C)/C=C/N(C)C=O`, the midpoint of inhibition in series [5], the IC50, lay at 1000 nM. Further, the Activity in the series listed under Homo sapiens worked out at 42%.

In the series filed under Oryctolagus cuniculus, `CC[C@@H](O)C[C@H](OC)[C@@H](C)CC[C@@H](OC(=O)C(C)C)[C@H](C)[C@H](OC)[C@H](C)/C=C/N(C)C=O` came in with an inhibition of 30%. The Activity in the series listed under Homo sapiens was determined as 0%.

The molecule `CCC(=O)O[C@@H](C[C@H](OC)[C@@H](C)CC[C@@H](OC(=O)C(C)C)[C@H](C)[C@H](OC)[C@H](C)/C=C/N(C=O)CC)C(C)C` yielded an inhibition in the series filed under Oryctolagus cuniculus of 85%. Besides, in the series filed under Homo sapiens, the Activity came out at 87%.

`CCC(=O)O[C@@H](C[C@H](OC)[C@@H](C)CC[C@@H](OC(=O)[C@H]1CCCO1)[C@H](C)[C@H](OC)[C@H](C)/C=C/N(C)C=O)C(C)C`: the inhibition in the series filed under Oryctolagus cuniculus came to 72%. The Activity in the series filed under Homo sapiens stood at 75%. The same molecule gave a logP in series [1] of 5.3.

For `CCC(=O)O[C@@H](C[C@H](OC)[C@@H](C)CC[C@@H](OC(=O)C(C)C)[C@H](C)[C@H](OC)[C@H](C)/C=C/N(C)C=O)C(C)C`, the inhibition in the series listed under Oryctolagus cuniculus came out at 21%. Moreover, in the series filed under Homo sapiens, the Activity came to 6%.

As for `CCC(=O)O[C@@H](C[C@H](OC)[C@@H](C)CC[C@@H](OC(=O)C(C)C)[C@H](C)[C@H](OC)[C@H](C)/C=C/N(C=O)CC(F)(F)F)C(C)C`, the inhibition in the series listed under Oryctolagus cuniculus was found to be 81%. In addition, in the series listed under Homo sapiens, the Activity came out at 53%.

`COC[C@@H](OC)C(=O)O[C@H](CC[C@H](C)[C@H](C[C@@H]1OC(=O)C[C@@H](O)C/C=C/C(=O)[C@H](C)[C@H](OC)c2coc(n2)-c2coc(n2)-c2coc(n2)/C=C/C[C@H](OC)[C@H]1C)OC)[C@H](C)[C@H](OC(C)=O)[C@H](C)/C=C/N(C)C=O`: the result in the series with Cell membrane [6] and in the series with Cell membrane [7] was Active. For the same molecule, in the series on A549 [8], the inhibition result was “Active”. In addition, the IC50 with B16 came out at 0.5 nM.

In the series listed under Oryctolagus cuniculus, `CCC(=O)O[C@@H](C[C@H](OC)[C@@H](C)CC[C@@H](OC(=O)C(C)C)[C@H](C)[C@H](OC)[C@H](C)/C=C/N1CCC1=O)C(C)C` came in with an inhibition of 30%. The Activity in the series listed under Homo sapiens is 12%.

In the series on KB, `CO[C@@H]1CC2=CC(=O)O[C@H](C2)[C@H](C)[C@H](OC)C[C@@H](OC)/C=C/[C@H](C)[C@@H](OC)C[C@@H](OC)/C=C/[C@H](C)[C@@H]([C@@H](C)[C@@H](OC)[C@@H](C)CCC(=O)[C@H](C)[C@@H](C/C=C/N(C)C=O)OC)OC(=O)/C=C/C=C(\C)C1` showed an IC50 of 100 nM.

In turn, `CCC(=O)O[C@@H](C[C@H](OC)[C@@H](C)CC[C@@H](OC(=O)[C@H]1CCCN1C)[C@H](C)[C@H](OC)[C@H](C)/C=C/N(C)C=O)C(C)C` had an inhibition in the series listed under Oryctolagus cuniculus of 45%. Also, the Activity in the series filed under Homo sapiens came out at 25%.

In the series listed under Oryctolagus cuniculus, `CCCN(C=O)/C=C/[C@@H](C)[C@@H](OC)[C@@H](C)[C@@H](CC[C@H](C)[C@H](C[C@H](OC(=O)CC)C(C)C)OC)OC(=O)C(C)C` yielded an inhibition of 40%. In addition, in the series filed under Homo sapiens, the Activity was 32%.

In the series listed under Oryctolagus cuniculus, `CCC(=O)O[C@@H](C[C@H](OC)[C@@H](C)CC[C@@H](OC(=O)C1CCCCC1)[C@H](C)[C@H](OC)[C@H](C)/C=C/N(C)C=O)C(C)C` displayed an inhibition of 65%. Further, the Activity in the series listed under Homo sapiens was 20%.

With `CO[C@H]([C@H](C)/C=C/N(C)C=O)[C@@H](C)C(=O)CC[C@H](C)[C@H](C[C@@H]1OC(=O)C[C@@H](OC(N)=O)C[C@H](C)C[C@H](O)[C@H](C)[C@@H](OC)c2coc(n2)-c2coc(n2)-c2coc(n2)/C=C/C[C@H](OC)[C@H]1C)OC` [KABIRAMIDE C], the IC50 in the series with L1210 is 10 nM.

As for `CCC(=O)O[C@H](CC)C[C@H](OC)[C@@H](C)CC[C@@H](OC(=O)C(C)C)[C@H](C)[C@H](OC)[C@H](C)/C=C/N(C)C=O`, the inhibition in the series listed under Oryctolagus cuniculus turned out to be 40%. In addition, the Activity in the series filed under Homo sapiens worked out at 33%.

`CO[C@@H]1C/C=C/c2nc(co2)-c2nc(co2)-c2nc(co2)[C@@H](C)CC(=O)CCC[C@@H](O)CC(=O)O[C@H](C[C@@H](OC)[C@@H](C)CCC(=O)[C@H](C)[C@H](OC(C)=O)[C@H](C)/C=C/N(C)C=O)[C@H]1C`: in the series on L1210, the midpoint of inhibition, the IC50, lay at 10 nM.

`CCC(=O)O[C@@H](C[C@H](OC)[C@@H](C)CC[C@@H](OC(=O)C(C)C)[C@H](C)[C@H](OC)[C@H](C)/C=C/N(C)C=O)C1CCCCC1` displayed an inhibition in the series listed under Oryctolagus cuniculus of 52%. The Activity in the series listed under Homo sapiens was 45%.

Turning to `CO[C@@H](C[C@@H]1OC(=O)C[C@@H](O)C[C@H](O)C[C@H](O)[C@H](C)[C@@H](OC)c2coc(n2)-c2coc(n2)-c2coc(n2)/C=C/CC[C@H]1C)[C@@H](C)CCC(=O)[C@H](C)[C@@H](C/C=C/N(C)C=O)OC`, in the series with L1210, the 50% inhibitory concentration (IC50) was under 1 nM.

For `CO[C@@H]([C@@H](C)[C@@H](CC[C@H](C)[C@H](C[C@H](OC(=O)CCCN)C(C)C)OC)OC(=O)[C@H]1CCCO1)[C@H](C)/C=C/N(C)C=O`, in the series listed under Oryctolagus cuniculus, the inhibition turned out to be 53%. The Activity in the series filed under Homo sapiens was found to be 58%. In addition, the inhibition result in the series on A549 [4] is “Active”. The same molecule yielded a lipophilicity (logP) in series [1] of 4.18.

In turn, `CCC(=O)O[C@@H](C[C@H](OC)[C@@H](C)CC[C@@H](OC(=O)C1CCC1)[C@H](C)[C@H](OC)[C@H](C)/C=C/N(C)C=O)C(C)C` showed an inhibition in the series filed under Oryctolagus cuniculus of 67%. Further, in the series listed under Homo sapiens, the Activity turned out to be 52%.

`CCC(=O)O[C@@H](C[C@H](OC)[C@@H](C)CC[C@@H](OC(=O)[C@@H]1CCCO1)[C@H](C)[C@H](OC)[C@H](C)/C=C/N(C)C=O)C(C)C` showed an inhibition in the series filed under Oryctolagus cuniculus of 50%. Also, the Activity in the series filed under Homo sapiens was determined as 67%.
